Source: PubChem BioAssay AID328 (DTP/NCI, 2004)
Where “and” joins values, the source holds several entries; their conditions need not be identical. Equal values may be shown once. Inconclusive results and toxic doses are left out. Rule for the calls: active = survival T/C of 150% or more; inactive = T/C below 125% in these data.

Tested on: BDF1 mice, P388 leukemia ip, median survival T/C
Assay: NCI In Vivo Anticancer Drug Screen. Data for tumor model P388 Leukemia (intraperitoneal) in B6D2F1 (BDF1) mice
Conditions: endpoint: median survival time, higher = longer survival
Outline: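 In tumour-bearing mice, survival after compound treatment is set against the vehicle group and given as a quotient.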

[1] = dose: 100.0 mg/kg/injection, schedule: Q04DX003 (ip), vehicle: Klucel (hydroxypropylcellulose) (HPC)
[2] = dose: 200.0 mg/kg/injection, schedule: Q04DX003 (ip), vehicle: Klucel (hydroxypropylcellulose) (HPC)
[3] = dose: 100.0 mg/kg/injection, schedule: Q01DX009 (ip), vehicle: saline with Tween-80
[4] = dose: 100.0 mg/kg/injection, schedule: Q04DX003 (ip), vehicle: saline with Tween-80
[5] = dose: 200.0 mg/kg/injection, schedule: Q01DX009 (ip), vehicle: saline with Tween-80
[6] = dose: 200.0 mg/kg/injection, schedule: Q04DX003 (ip), vehicle: saline with Tween-80
[7] = dose: 400.0 mg/kg/injection, schedule: Q01DX009 (ip), vehicle: saline with Tween-80
[8] = dose: 400.0 mg/kg/injection, schedule: Q04DX003 (ip), vehicle: saline with Tween-80
[9] = dose: 50.0 mg/kg/injection, schedule: Q01DX009 (ip), vehicle: saline with Tween-80
[10] = dose: 100.0 mg/kg/injection, schedule: Q01DX009 (ip), vehicle: Klucel (hydroxypropylcellulose) (HPC)
[11] = dose: 200.0 mg/kg/injection, schedule: Q01DX009 (ip), vehicle: Klucel (hydroxypropylcellulose) (HPC)
[12] = dose: 100.0 mg/kg/injection, schedule: Q04DX003 (ip), vehicle: saline
[13] = dose: 100.0 mg/kg/injection, schedule: Q01DX001 (ip), vehicle: Klucel (hydroxypropylcellulose) (HPC)
[14] = dose: 200.0 mg/kg/injection, schedule: Q01DX001 (ip), vehicle: Klucel (hydroxypropylcellulose) (HPC)
[15] = dose: 400.0 mg/kg/injection, schedule: Q01DX001 (ip), vehicle: Klucel (hydroxypropylcellulose) (HPC)

Measured: T/C

CSc1nccc(=O)n1-c1cccc(C(F)(F)F)c1
inactive: [1] 107 % of control | [2] 107 % of control

CCOC(=O)c1cnn(C(N)=O)c1N
inactive: [3] 115 % of control | [4] 110 % of control | [5] 90 % of control | [6] 115 % of control | [7] 109 % of control and 115 % of control | [8] 115 % of control

C=COCC(C)C (tested in a mixture with another compound)
inactive: dose: 0.19 mg/kg/injection, schedule: Q01DX009 (ip), vehicle: Klucel (hydroxypropylcellulose) (HPC) 105 % of control | dose: 0.39 mg/kg/injection, schedule: Q01DX009 (ip), vehicle: Klucel (hydroxypropylcellulose) (HPC) 120 % of control | dose: 0.78 mg/kg/injection, schedule: Q01DX009 (ip), vehicle: Klucel (hydroxypropylcellulose) (HPC) 120 % of control | dose: 0.78 mg/kg/injection, schedule: Q04DX003 (ip), vehicle: saline 104 % of control | dose: 1.56 mg/kg/injection, schedule: Q01DX009 (ip), vehicle: Klucel (hydroxypropylcellulose) (HPC) 100 % of control | dose: 1.56 mg/kg/injection, schedule: Q04DX003 (ip), vehicle: Klucel (hydroxypropylcellulose) (HPC) 109 % of control | dose: 1.56 mg/kg/injection, schedule: Q04DX003 (ip), vehicle: saline 95 % of control | dose: 3.12 mg/kg/injection, schedule: Q04DX003 (ip), vehicle: Klucel (hydroxypropylcellulose) (HPC) 104 % of control | dose: 3.12 mg/kg/injection, schedule: Q04DX003 (ip), vehicle: saline 104 % of control | dose: 4.6 mg/kg/injection, schedule: Q04DX003 (ip), vehicle: saline 104 % of control | dose: 6.25 mg/kg/injection, schedule: Q04DX003 (ip), vehicle: Klucel (hydroxypropylcellulose) (HPC) 113 % of control | dose: 7.0 mg/kg/injection, schedule: Q04DX003 (ip), vehicle: saline 109 % of control | dose: 7.5 mg/kg/injection, schedule: Q01DX001 (ip), vehicle: alcohol 91 % of control | dose: 8.75 mg/kg/injection, schedule: Q01DX009 (ip), vehicle: saline with Tween-80 110 % of control | dose: 10.0 mg/kg/injection, schedule: Q04DX003 (ip), vehicle: saline 104 % of control | dose: 15.0 mg/kg/injection, schedule: Q01DX001 (ip), vehicle: alcohol 104 % of control | dose: 17.5 mg/kg/injection, schedule: Q01DX009 (ip), vehicle: saline with Tween-80 95 % of control | dose: 30.0 mg/kg/injection, schedule: Q01DX001 (ip), vehicle: alcohol 104 % of control

CC1CC(O)C2C3(C)CCCC2(COC3=O)C12CCC1(CCOC1=O)O2 (stereo not drawn)
inactive: dose: 0.13 mg/kg/injection, schedule: Q01DX009 (ip), vehicle: saline 112 % of control | dose: 0.25 mg/kg/injection, schedule: Q01DX009 (ip), vehicle: saline 104 % of control | dose: 0.5 mg/kg/injection, schedule: Q01DX009 (ip), vehicle: saline 93 % of control | dose: 1.0 mg/kg/injection, schedule: Q01DX009 (ip), vehicle: saline 104 % of control

CCN(CC)CCCC(C)Nc1c2ccccc2nc2c(Cl)cccc12 (stereo not drawn)
inactive: dose: 25.0 mg/kg/injection, schedule: Q01DX009 (ip), vehicle: saline sonified 88 % of control | dose: 50.0 mg/kg/injection, schedule: Q01DX009 (ip), vehicle: saline sonified 94 % of control

CC[NH-].CC[NH-].[I][Pt+2][I]
active: dose: 3.12 mg/kg/injection, schedule: Q01DX009 (ip), vehicle: saline 190 % of control | dose: 6.25 mg/kg/injection, schedule: Q01DX009 (ip), vehicle: saline 185 % of control

COC(=O)CCC(C)C1CCC2C3CCC4CC(SC(=N)N)CCC4(C)C3CCC12C (stereo not drawn)
inactive: dose: 1.56 mg/kg/injection, schedule: Q01DX009 (ip), vehicle: suspension in saline 93 % of control | dose: 3.13 mg/kg/injection, schedule: Q01DX009 (ip), vehicle: suspension in saline 100 % of control | dose: 6.25 mg/kg/injection, schedule: Q01DX009 (ip), vehicle: suspension in saline 109 % of control | [9] 105 % of control | [3] 103 % of control

COc1ccc(C(C)c2ccccc2)cc1 (stereo not drawn)
inactive: [4] 110 % of control | [6] 105 % of control | [8] 100 % of control

O=C(c1ccccc1)C1OC1c1ccccc1 (stereo not drawn)
inactive: [3] 93 % of control | [5] 99 % of control | [7] 100 % of control | dose: 600.0 mg/kg/injection, schedule: Q01DX009 (ip), vehicle: saline with Tween-80 100 % of control

CC(=O)c1ccc(-c2ccccc2)cc1
inactive: [3] 100 % of control | [5] 91 % of control | [7] 95 % of control

CN1CCCN(C)CC1
inactive: dose: 75.0 mg/kg/injection, schedule: Q01DX009 (ip), vehicle: saline with Tween-80 103 % of control | [4] 100 % of control | dose: 150.0 mg/kg/injection, schedule: Q01DX009 (ip), vehicle: saline with Tween-80 119 % of control | [6] 95 % of control | dose: 300.0 mg/kg/injection, schedule: Q01DX009 (ip), vehicle: saline with Tween-80 107 % of control | [8] 112 % of control

O=C(NO)c1ccccc1
inactive: dose: 50.0 mg/kg/injection, schedule: Q01DX009 (ip), vehicle: Klucel (hydroxypropylcellulose) (HPC) 105 % of control and 116 % of control | dose: 50.0 mg/kg/injection, schedule: Q04DX003 (ip), vehicle: Klucel (hydroxypropylcellulose) (HPC) 103 % of control and 116 % of control | [10] 91 % of control and 104 % of control and 105 % of control | [1] 106 % of control and 108 % of control and 113 % of control | [11] 107 % of control and 109 % of control | [2] 104 % of control (2×) and 108 % of control | dose: 400.0 mg/kg/injection, schedule: Q04DX003 (ip), vehicle: Klucel (hydroxypropylcellulose) (HPC) 100 % of control and 116 % of control

CC12CCCN(CCCl)C1CCC1C2CCC2(C)C1CCCN2CCCl (stereo not drawn)
inactive: dose: 0.38 mg/kg/injection, schedule: Q01DX001 (ip), vehicle: saline 98 % of control | dose: 0.75 mg/kg/injection, schedule: Q01DX001 (ip), vehicle: saline 102 % of control | dose: 0.78 mg/kg/injection, schedule: Q01DX001 (ip), vehicle: saline 102 % of control | dose: 1.5 mg/kg/injection, schedule: Q01DX001 (ip), vehicle: saline 109 % of control | dose: 1.56 mg/kg/injection, schedule: Q01DX001 (ip), vehicle: saline 100 % of control | dose: 3.13 mg/kg/injection, schedule: Q01DX001 (ip), vehicle: saline 107 % of control | dose: 6.25 mg/kg/injection, schedule: Q01DX001 (ip), vehicle: saline 116 % of control

O=C1CCCC(=O)N1CCCCCCN1C(=O)CCCC1=O
inactive: [9] 104 % of control | [3] 112 % of control

CC1(C)C(=O)C(C)(C)C1=NO
inactive: [12] 95 % of control | dose: 200.0 mg/kg/injection, schedule: Q04DX003 (ip), vehicle: saline 100 % of control | dose: 400.0 mg/kg/injection, schedule: Q04DX003 (ip), vehicle: saline 95 % of control

c1ccc(-c2[nH]c3ccccc3c2-c2ccccc2)cc1
inactive: [13] 109 % of control | [14] 113 % of control | [15] 122 % of control

O=C(NCC(O)CCl)c1ccc([N+](=O)[O-])cc1 (stereo not drawn)
inactive: [13] 100 % of control | [14] 100 % of control | [15] 110 % of control

CCCCNP(=O)(N1CC1CC)N1CC1CC (stereo not drawn)
inactive: [12] 122 % of control

CC(=N/NC(N)=S)/C(C)=N/NC(N)=S
inactive: [10] 100 % of control | [11] 100 % of control | dose: 400.0 mg/kg/injection, schedule: Q01DX009 (ip), vehicle: Klucel (hydroxypropylcellulose) (HPC) 100 % of control

O=C(OCCCl)c1ccc(Cl)cc1
inactive: dose: 50.0 mg/kg/injection, schedule: Q04DX003 (ip), vehicle: saline with Tween-80 108 % of control | [4] 100 % of control | [6] 94 % of control | [8] 94 % of control

CC(=O)[C@]1(O)Cc2c(O)c3c(c(O)c2[C@@H](OC2CC(N)C(O)C(C)O2)C1)C(=O)c1c(O)cccc1C3=O (stereo partly drawn)
active: dose: 0.32 mg/kg/injection, schedule: Q04DX003 (ip), vehicle: water 185 % of control | dose: 0.39 mg/kg/injection, schedule: Q04DX003 (ip), vehicle: water 203 % of control
inactive: dose: 0.54 mg/kg/injection, schedule: Q04DX003 (ip), vehicle: water 101 % of control | dose: 0.9 mg/kg/injection, schedule: Q04DX003 (ip), vehicle: water 92 % of control | dose: 1.08 mg/kg/injection, schedule: Q04DX003 (ip), vehicle: water 115 % of control
